# Measurements reported in patent US20220117920A1, “N-Aryl Benzenesulfonamides as Protonophores for the Treatment of Cancers, Metabolic Diseases and Traumatic Brain Injury” (University of Kentucky Research Foundation, priority 2019, published 2022).
# Legend:
# [1] = tested on: mitochondrial ATP production; test: Agilent Seahorse XF Real-Time ATP Rate Assay; assay type: cell-based, human; details: 3 μM
# Experimental: Seahorse assay. Approximately 3×10^4 cells were seeded in XF96 Cell Culture microplate (80 μL of 3.75×10^5 cells/mL) for all experiments. On the next day, cell culture media were replaced with either Seahorse XF modified media with 25 mM glucose and 1 mM pyruvate. After media exchange, cells were treated with 1 μM of oligomycin A, 1.0 μM FCCP and mixture of 1.0 μM of rotenone and 1.0 μM of antimycin A in standard mitochondrial stress test conditions. To determine the uncoupler effects, FCCP was replaced with an equal volume of DMSO, or a compound to be tested in DMSO solution. ATP production rate was analyzed using Agilent Seahorse XF Real-Time ATP Rate Assay.
# Huh7 tumor xenograft = Huh7 tumor xenograft model in athymic nude mice; assay type: in vivo
# Experimental: All animal experiments were performed in accord with the guidelines, rules and recommendations and was approved by the University of Kentucky Institutional Animal Care and Use Committee after approval (IACUC). Three- to four-weeks old female athymic nude mice (nu/nu, The Jackson Laboratory, USA) were housed in a pathogen-free environment at the Division of Laboratory Animal Resources of the Chandler Medical Center, University of Kentucky. To generate in vivo tumors, Huh7 culture cells in mid-log phase growth were collected and re-suspended in a 50% mixture of Matrigel (BD Biosciences, USA) in serum-free medium to a final concentration of 6×10^7 cells per mL. A volume of 0.1 mL of the cell suspension was injected subcutaneously in the right flank of each mouse. Mice were weighed and checked for tumor growth every other day. When tumors reached a volume of 100 mm^3, mice were randomly divided into two groups of 5: vehicle control group and FH535 group (receiving 15 mg of FH535/kg/day from a stock prepared in dimethyl sulfoxide (DMSO) at 21.7 mg/mL and diluted in serum-free medium to a final concentration of 40% DMSO). Vehicle and FH535 were administered by intraperitoneal injection every other day. Tumors were measured using an optical caliper and tumor size was calculated using the formula: 0.5×length×(width)^2. Mice were euthanized at the end of the experiment or when reaching humane end-point following AVMA guidelines. Humane end-points included animals with tumors exceeding 20 mm in maximum diameter, with ulcerated tumors, more than 20% body weight loss, impaired mobility, labored breathing or with a body condition score below 2.
# Tumors from the xenograft model were formaldehyde fixed and paraffin-embedded and were used to performed H&E staining and immunohistochemistry of Ki-67 according to standard procedures.
# Wnt/β-catenin pathway = test: TOP-Flash TCF4-dependent dual luciferase reporter assay in Huh7 cells; assay type: cell-based, human; details: Huh7, 10 mM LiCl
# Experimental: Cells were plated at 1×10^5 cells/well in 24-well plates and transiently transfected with 490 ng of luciferase-reporter plasmid and 10 ng of phRL-TK per well using the Turbofect transfection reagent (Thermo Scientific, USA). After 5-6 h post-transfection, cells were treated with drug(s) or DMSO vehicle control for 36 h in the presence or absence of LiCl (10 mM). Luciferase assays were performed using the Dual Luciferase Assay System (Promega, USA) according to manufacturer's instructions.
# Huh7 cells [2] = test: Western blot of autophagy markers LC3II and p62 in Huh7 cells; assay type: cell-based, human
# From the text: Primary antibodies are described in Table 1.
# p62 = test: RT-qPCR of p62 mRNA in Huh7 cells; assay type: cell-based, human; details: Huh7, absence of CQ
# Experimental: Total RNA was extracted with miRNeasy mini kit (Qiagen, Germany), and the corresponding cDNA was produced using iScript cDNA synthesis kit (BioRad, USA) from 1 μg of total RNA. Real time quantitative PCR (RT-qPCR) was performed using SsoAdvanced Universal SYBR Green supermix (BioRad, USA) with specific primers: p62 (SQSTM1: 5′-[…]-3′ (SEQ ID NO: 1) and 5′-[…]-3′ (SEQ ID NO: 2)); c-MYC (cMYC: 5′-[…]-3′ (SEQ ID NO: 3) and 5′-[…]-3′ (SEQ ID NO: 4)), Survivin (BIRC5, 5′-[…]-3′ (SEQ ID NO: 5) and 5′-[…]-3′ (SEQ ID NO: 6)), AXIN 2 (AXIN2: 5′-[…]-3′ (SEQ ID NO: 7) and 5′-[…]-3′ (SEQ ID NO: 8)), Cyclin D1 (5′-CCND1: […]-3′ (SEQ ID NO: 9) and 5′-[…]-3′ (SEQ ID NO: 10)), and b2-microglobulin (B2M: 5′-[…]-3′ (SEQ ID NO: 11) and 5′-[…]-3′ (SEQ ID NO: 12)). Transcript levels were normalized to β-actin or […] level as indicated using the ΔΔCt method.
# Huh7 cells [3] = test: Cyto-ID autophagy detection assay in Huh7 cells; assay type: cell-based, human; details: Huh7, 40 h, ±50 μM CQ
# Experimental: Autophagy responses were monitored with the Cyto-ID autophagy detection reagent 2.0 (Enzo Life Sciences, USA) according to the manufacturer's instructions. Huh7 and PLC/PRF/5 cells were seeded in 12-well plates and treated the following day with drugs or DMSO vehicle control at the indicated concentrations. CQ was added to the corresponding wells to a final concentration of 50 μM 8 h prior harvesting. After 40 h of drug treatment, cells were collected and assessed for viability with Zombie Violet dye solution (BioLegend, USA) followed by Cyto-ID autophagy detection reagent staining. Flow cytometry analyses were performed in a BD LSRII at the Flow Cytometry and Cell Sorting Shared Resource Facility of the University of Kentucky Markey Cancer Center and data were analyzed with the FlowJo Software version 7.6.5 (Tree Star, USA). The autophagic flux was quantified by subtracting the Cyto-ID MFI value of the sample without CQ from the Cyto-ID MFI value of the sample with CQ for each condition according to the formula: […]
# Huh7 cells [4] = test: Seahorse mitochondrial stress test (OCR) in Huh7 cells; assay type: cell-based, human; details: Huh7, 24 h
# Experimental: Oxygen Consumption Rates (OCR) were measured on an XF-96 Extracellular Flux Analyzer (Seahorse Bioscience) using the protocol and conditions optimized for HCC cells as previously described by our group. Briefly, the experiments were performed by seeding 10,000 and 20,000 Huh7 cells per well in XFe 96 well-plates 36 h before the experiment. Cells were treated for 24 h with FH535, FH535-N or vehicle control. In OCR experiments the media was supplemented with 25 mM Glucose and 1 mM Pyruvate just before the assay. After minimal incubation time (˜20-30 min in non-CO2 37° C. incubator) mitochondrial stress test was initiated. […] All reagents used in the Seahorse experiments were purchased from Sigma-Aldrich. Analyses of data were performed with Wave 2.2 software (Seahorse Bioscience), Excel (Microsoft Office 2013) and Prism 7.0 (GraphPad Software).
smiles,measurement,setting,value
"Cc1cc([N+](=O)[O-])ccc1NS(=O)(=O)c1cc(Cl)ccc1Cl [FH535, 2,5-dichloro-N-(2-methyl-4-nitrophenyl)benzenesulfonamide]",rate of ATP production in mitochondria,[1],decreased the rates of ATP production in mitochondria
same,reduction of tumor weight compared to vehicle,"Huh7 tumor xenograft; 15 mg/Kg i.p. every other day, 10 day treatment",42±8%
same,tumor volume compared to control group,"Huh7 tumor xenograft; 15 mg/kg every other day, after four days of treatment, p<0.05",significantly reduced
same,proliferation index (Ki-67),"Huh7 tumor xenograft; excised tumors, same in control group",greater than 95%
same,Wnt/β-catenin transcriptional activity (TOP-Flash),Wnt/β-catenin pathway,target the Wnt/β-catenin signaling pathway
same,"accumulation of LC3II in the presence of CQ (autophagic flux, ΔLC3II)","Huh7 cells [2]; Huh7, 50 μM CQ 8 h",reduced accumulation of LC3II in the presence of CQ
same,LC3II protein levels,"Huh7 cells [2]; Huh7, 40 h",increased the lipid-bound expression of LC3II levels in a dose-dependent manner
same,p62 protein levels,"Huh7 cells [2]; Huh7, 40 h",increased
same,p62 mRNA levels,p62,increase of p62 mRNA levels
same,autophagic flux (Cyto-ID),Huh7 cells [3],reduced accumulation of autophagic vesicles
same,Proton Leak,Huh7 cells [4],enhanced Proton Leak
